Laboratory results reported in patent US11771765B2, “Light augmented treatment method” (The Procter & Gamble Company, priority 2019, dated 2023).

How the values were obtained:
M. furfur CBS 7982 = assay: Fractional Inhibitor Concentration (FIC): antimicrobial plus 409 nm light on M. furfur growth; assay type: cell-based, Malassezia furfur; settings: for growth, OD 600 nm: 16 h growth
Protocol: Fractional Inhibitor Concentration (FIC) is a conventional methodology for evaluating the interaction of two antimicrobial chemicals. […] In an embodiment of the present invention, FIC is used to determine combinatorial effects of one chemical and exposure to light on Malassezia growth and/or viability in an in vitro system.
• 1. M. furfur CBS 7982 cells are exposed to a varying concentrations of an antimicrobial active (e.g. ZPT, Piroctone Olamine) for a specified amount of time (e.g. 2 min to 3 hours). • 2. After exposure, the antimicrobial is washed away by centrifugation of the cells and a series of washes • 3. Cells are then exposed to light at a wavelength of 409 nm for varying lengths of time • 4. Cells are then allowed to grow up overnight (e.g. 17 h) to determine the impact of the treatment on viability and growth of the organism by measuring OD600 II. Data Analysis: • 1. Inhibition of growth is determined to be where the OD value obtained is <=50% of the untreated control • 2. The lowest concentration value of the antimicrobial agent which inhibits growth is determined • 3. Likewise, the shortest light exposure time is determined that gives growth inhibition • 4. Finally, the combination of the lowest concentration of the antimicrobial and the shortest light exposure time that provides growth inhibition is determined • 5. The FIC value is determined using the calculation below:
[formula] • 6. The combinatorial effect of the antimicrobial and light is classified according to the chart below: […]
(§1) M. furfur is incubated for one hour with varying concentrations of Piroctone Olamine. Cell pellets are collected by centrifugation so that most of the anti-fungal material has been removed. The cell pellet is suspended in PBS and 500 uL samples are distributed to four 12 well plates and treated with light (409 nm) for 1, 10 or 60 minutes or stored in the dark. Samples are then diluted into mDixon, and incubated for 16 h with subsequent growth measured by OD 600 nm.
as §1, with “Hinokitiol.” for “Piroctone Olamine.”, “27” for “16”, “nm. […]” for “nm.”

M. furfur = M. furfur viability on mDixon agar plates after Piroctone Olamine and 409 nm light (Table 3); assay type: cell-based, Malassezia furfur; design: key to growth on mDixon agar plate (score): +: a continuous fungal lawn; +/−: a lawn with breaks allowing the agar to show; −: 0 to 5 colonies
Protocol: M. furfur is incubated for one hour with the indicated concentrations of Piroctone Olamine then a cell pellet of 4 OD*mL is collected by centrifugation so that most of the anti-fungal material has been removed. The cell pellet is suspended in 4.2 mL PBS and 1 mL samples are distributed to four 12 well plates and treated with light (409 nm, 1200 fc) for 1, 10 or 60 minutes or stored in the dark. Samples are processed as described previously with 600 uL diluted into 13 mL mDixon and 50 uL of the photolyzed cells are diluted into 50 uL of mDixon then three 40 uL+360 uL mDixon dilutions are prepared.
Where +=a continuous fungal lawn, +/−=a lawn with breaks allowing the agar to show, −=0 to 5 colonies
After the photolysis, 0.6 mL is added to 13 mL fresh mDixon and grown overnight but, in addition, 50 uL is added to 50 uL mDixon then that sample is diluted 3 more times 40 uL=>400 uL and 10 uL of each of the dilutions are plated in duplicate on mDixon agar plates.

Cc1cc(CC(C)CC(C)(C)C)n(O)c(=O)c1.NCCO (stereo not drawn) [Piroctone Olamine, 1-Hydroxy-4-methyl-6-(2,4,4-trimethylpentyl)-2-pyridone monoethanolamine salt]
shortest light exposure time when applied in combination to give growth inhibition (M. furfur CBS 7982; 409 nm light, with the lowest inhibiting concentration): 1 min
growth, OD 600 nm (M. furfur CBS 7982; Piroctone Olamine 4 ppm 1 h, 409 nm light 0 min): 3.6
growth, OD 600 nm (M. furfur CBS 7982; Piroctone Olamine 4 ppm 1 h, 409 nm light 1 min): 4.1
growth, OD 600 nm (M. furfur CBS 7982; Piroctone Olamine 4 ppm 1 h, 409 nm light 10 min): 3.9
growth, OD 600 nm (M. furfur CBS 7982; Piroctone Olamine 4 ppm 1 h, 409 nm light 60 min): 3.7
growth, OD 600 nm (M. furfur CBS 7982; Piroctone Olamine 8 ppm 1 h, 409 nm light 0 min): 3.9
growth, OD 600 nm (M. furfur CBS 7982; Piroctone Olamine 8 ppm 1 h, 409 nm light 1 min): 0.1
growth, OD 600 nm (M. furfur CBS 7982; Piroctone Olamine 8 ppm 1 h, 409 nm light 10 min): 0.0
growth, OD 600 nm (M. furfur CBS 7982; Piroctone Olamine 8 ppm 1 h, 409 nm light 60 min): 0.0
growth, OD 600 nm (M. furfur CBS 7982; Piroctone Olamine 16 ppm 1 h, 409 nm light 0 min): 2.6
growth, OD 600 nm (M. furfur CBS 7982; Piroctone Olamine 16 ppm 1 h, 409 nm light 1 min): 0.1
growth, OD 600 nm (M. furfur CBS 7982; Piroctone Olamine 16 ppm 1 h, 409 nm light 10 min): 0.0
growth, OD 600 nm (M. furfur CBS 7982; Piroctone Olamine 16 ppm 1 h, 409 nm light 60 min): 0.0
growth, OD 600 nm (M. furfur CBS 7982; Piroctone Olamine 32 ppm 1 h, 409 nm light 0 min): 2.1
growth, OD 600 nm (M. furfur CBS 7982; Piroctone Olamine 32 ppm 1 h, 409 nm light 1 min): 0.2
growth, OD 600 nm (M. furfur CBS 7982; Piroctone Olamine 32 ppm 1 h, 409 nm light 10 min): 0.0
growth, OD 600 nm (M. furfur CBS 7982; Piroctone Olamine 32 ppm 1 h, 409 nm light 60 min): 0.0
growth, OD 600 nm (M. furfur CBS 7982; Piroctone Olamine 64 ppm 1 h, 409 nm light 0 min): 1.3
growth, OD 600 nm (M. furfur CBS 7982; Piroctone Olamine 64 ppm 1 h, 409 nm light 1 min): 0.1
growth, OD 600 nm (M. furfur CBS 7982; Piroctone Olamine 64 ppm 1 h, 409 nm light 10 min): 0.0
growth, OD 600 nm (M. furfur CBS 7982; Piroctone Olamine 64 ppm 1 h, 409 nm light 60 min): 0.0
lowest concentration to give growth inhibition (M. furfur CBS 7982; antimicrobial alone, no light, inhibition = OD <=50% of untreated control): 64 ppm
FIC value (M. furfur CBS 7982; antimicrobial plus 409 nm light): 0.14
Combinatorial Effect (M. furfur CBS 7982; antimicrobial plus 409 nm light, classified by FIC value): synergistic
lowest concentration when applied in combination with light to give growth inhibition (M. furfur CBS 7982; with 409 nm light, inhibition = OD <=50% of untreated control): 8 ppm
effect of light on viable cells (M. furfur; 8 ppm): no effect
holding growth down overnight in the original samples (M. furfur; 8 ppm): does not hold M. furfur growth down overnight
growth on mDixon agar plate (score) (M. furfur; 8 ppm 1 h, culture dilution 1:2, 409 nm light 1 min): +
growth on mDixon agar plate (score) (M. furfur; 8 ppm 1 h, culture dilution 1:2, 409 nm light 10 min): +
growth on mDixon agar plate (score) (M. furfur; 8 ppm 1 h, culture dilution 1:2, 409 nm light 60 min): +
growth on mDixon agar plate (score) (M. furfur; 8 ppm 1 h, culture dilution 1:2, Dark): +
growth on mDixon agar plate (score) (M. furfur; 8 ppm 1 h, culture dilution 1:20, 409 nm light 1 min): +
growth on mDixon agar plate (score) (M. furfur; 8 ppm 1 h, culture dilution 1:20, 409 nm light 10 min): +
growth on mDixon agar plate (score) (M. furfur; 8 ppm 1 h, culture dilution 1:20, 409 nm light 60 min): +
growth on mDixon agar plate (score) (M. furfur; 8 ppm 1 h, culture dilution 1:20, Dark): +
growth on mDixon agar plate (score) (M. furfur; 8 ppm 1 h, culture dilution 1:200, 409 nm light 1 min): +/−
growth on mDixon agar plate (score) (M. furfur; 8 ppm 1 h, culture dilution 1:200, 409 nm light 10 min): +/−
growth on mDixon agar plate (score) (M. furfur; 8 ppm 1 h, culture dilution 1:200, 409 nm light 60 min): +/−
growth on mDixon agar plate (score) (M. furfur; 8 ppm 1 h, culture dilution 1:200, Dark): +/−
growth on mDixon agar plate (score) (M. furfur; 8 ppm 1 h, culture dilution 1:2000, 409 nm light 1 min): +/−
growth on mDixon agar plate (score) (M. furfur; 8 ppm 1 h, culture dilution 1:2000, 409 nm light 10 min): +/−
growth on mDixon agar plate (score) (M. furfur; 8 ppm 1 h, culture dilution 1:2000, 409 nm light 60 min): +/−
growth on mDixon agar plate (score) (M. furfur; 8 ppm 1 h, culture dilution 1:2000, Dark): +/−
holding growth down overnight in the original samples (M. furfur; 16 and 32 ppm): 16 and 32 ppm do
fewer viable cells (M. furfur; 16 and 32 ppm, 1 minute of light exposure): about 10 fold
fewer cells (M. furfur; 16 and 32 ppm, longer light exposures): > 100 fold
growth on mDixon agar plate (score) (M. furfur; 16 ppm 1 h, culture dilution 1:2, 409 nm light 1 min): +
growth on mDixon agar plate (score) (M. furfur; 16 ppm 1 h, culture dilution 1:2, 409 nm light 10 min): +/−
growth on mDixon agar plate (score) (M. furfur; 16 ppm 1 h, culture dilution 1:2, 409 nm light 60 min): +/−
growth on mDixon agar plate (score) (M. furfur; 16 ppm 1 h, culture dilution 1:2, Dark): +
growth on mDixon agar plate (score) (M. furfur; 16 ppm 1 h, culture dilution 1:20, 409 nm light 1 min): +/−
growth on mDixon agar plate (score) (M. furfur; 16 ppm 1 h, culture dilution 1:20, 409 nm light 10 min): +/−
growth on mDixon agar plate (score) (M. furfur; 16 ppm 1 h, culture dilution 1:20, 409 nm light 60 min): +/−
growth on mDixon agar plate (score) (M. furfur; 16 ppm 1 h, culture dilution 1:20, Dark): +
growth on mDixon agar plate (score) (M. furfur; 16 ppm 1 h, culture dilution 1:200, 409 nm light 1 min): +/−
growth on mDixon agar plate (score) (M. furfur; 16 ppm 1 h, culture dilution 1:200, 409 nm light 10 min): − (0 to 5 colonies)
growth on mDixon agar plate (score) (M. furfur; 16 ppm 1 h, culture dilution 1:200, 409 nm light 60 min): − (0 to 5 colonies)
growth on mDixon agar plate (score) (M. furfur; 16 ppm 1 h, culture dilution 1:200, Dark): +/−
growth on mDixon agar plate (score) (M. furfur; 16 ppm 1 h, culture dilution 1:2000, 409 nm light 1 min): +/−
growth on mDixon agar plate (score) (M. furfur; 16 ppm 1 h, culture dilution 1:2000, 409 nm light 10 min): − (0 to 5 colonies)
growth on mDixon agar plate (score) (M. furfur; 16 ppm 1 h, culture dilution 1:2000, 409 nm light 60 min): − (0 to 5 colonies)
growth on mDixon agar plate (score) (M. furfur; 16 ppm 1 h, culture dilution 1:2000, Dark): +/−
growth on mDixon agar plate (score) (M. furfur; 32 ppm 1 h, culture dilution 1:2, 409 nm light 1 min): +
growth on mDixon agar plate (score) (M. furfur; 32 ppm 1 h, culture dilution 1:2, 409 nm light 10 min): +/−
growth on mDixon agar plate (score) (M. furfur; 32 ppm 1 h, culture dilution 1:2, 409 nm light 60 min): +/−
growth on mDixon agar plate (score) (M. furfur; 32 ppm 1 h, culture dilution 1:2, Dark): +
growth on mDixon agar plate (score) (M. furfur; 32 ppm 1 h, culture dilution 1:20, 409 nm light 1 min): +/−
growth on mDixon agar plate (score) (M. furfur; 32 ppm 1 h, culture dilution 1:20, 409 nm light 10 min): +/−
growth on mDixon agar plate (score) (M. furfur; 32 ppm 1 h, culture dilution 1:20, 409 nm light 60 min): +/−
growth on mDixon agar plate (score) (M. furfur; 32 ppm 1 h, culture dilution 1:20, Dark): +
growth on mDixon agar plate (score) (M. furfur; 32 ppm 1 h, culture dilution 1:200, 409 nm light 1 min): +/−
growth on mDixon agar plate (score) (M. furfur; 32 ppm 1 h, culture dilution 1:200, 409 nm light 10 min): +/−
growth on mDixon agar plate (score) (M. furfur; 32 ppm 1 h, culture dilution 1:200, 409 nm light 60 min): − (0 to 5 colonies)
growth on mDixon agar plate (score) (M. furfur; 32 ppm 1 h, culture dilution 1:200, Dark): +/−
growth on mDixon agar plate (score) (M. furfur; 32 ppm 1 h, culture dilution 1:2000, 409 nm light 1 min): +/−
growth on mDixon agar plate (score) (M. furfur; 32 ppm 1 h, culture dilution 1:2000, 409 nm light 10 min): − (0 to 5 colonies)
growth on mDixon agar plate (score) (M. furfur; 32 ppm 1 h, culture dilution 1:2000, 409 nm light 60 min): − (0 to 5 colonies)
growth on mDixon agar plate (score) (M. furfur; 32 ppm 1 h, culture dilution 1:2000, Dark): +/−
